Measured values from patent US10357526B2, “Compositions for the treatment of infections caused by mite Demodex spp” (PROCAPS S.A., priority 2014, dated 2019).

Test system: Demodex Spp
Assay: Evaluation of the solvent action on the survival of mites
Conditions: for Average life time of Acaro (mites) in the solvents: neat solvent
Excerpt: Before evaluating the miticide effect of each of the oils, miscibility and safety thereof on mites was studied.

| Compound | Average life time of Acaro (mites) in the solvents | Acaricidal activity of the diluent (within 8 hours) |
| --- | --- | --- |
| CCO [Absolute Ethanol] | 0.03434 h |  |
| CCCCCCCC/C=C\CCCCCCCC(=O)OCCCCCCCCCC [Cetiol V, decyl oleate] | 8 h | did not have acaricidal activity |
| CCCCCCCCCCCCCC(=O)OC(C)C [Isopropyl Myristate] | 3.37 h |  |
| PEG-7 Glycerol Cocoate [Cetiol HE] | 0.08938 h |  |
